Data: ChEMBL document CHEMBL1142315, “In silico screening and biological evaluation of inhibitors of Src-SH3 domain interaction with a proline-rich ligand” (Bioorg Med Chem Lett, 2008)
Active and inactive are the calls of the source. The rule behind the calls is not given here.

Legend:
[1] = molecular target: Proto-oncogene tyrosine-protein kinase Src (Homo sapiens) (UniProt P12931); experiment: Inhibition of interaction between human Src-SH3 domain and PRP2 at 800 uM by fluorescence polarization technique
[2] = molecular target: Proto-oncogene tyrosine-protein kinase Src (Homo sapiens) (UniProt P12931); experiment: Inhibition of interaction between human Src-SH3 domain and PRP2 at 100 uM by fluorescence polarization technique

Sequence of Proto-oncogene tyrosine-protein kinase Src (Homo sapiens) (P12931 2-536 limits assumed): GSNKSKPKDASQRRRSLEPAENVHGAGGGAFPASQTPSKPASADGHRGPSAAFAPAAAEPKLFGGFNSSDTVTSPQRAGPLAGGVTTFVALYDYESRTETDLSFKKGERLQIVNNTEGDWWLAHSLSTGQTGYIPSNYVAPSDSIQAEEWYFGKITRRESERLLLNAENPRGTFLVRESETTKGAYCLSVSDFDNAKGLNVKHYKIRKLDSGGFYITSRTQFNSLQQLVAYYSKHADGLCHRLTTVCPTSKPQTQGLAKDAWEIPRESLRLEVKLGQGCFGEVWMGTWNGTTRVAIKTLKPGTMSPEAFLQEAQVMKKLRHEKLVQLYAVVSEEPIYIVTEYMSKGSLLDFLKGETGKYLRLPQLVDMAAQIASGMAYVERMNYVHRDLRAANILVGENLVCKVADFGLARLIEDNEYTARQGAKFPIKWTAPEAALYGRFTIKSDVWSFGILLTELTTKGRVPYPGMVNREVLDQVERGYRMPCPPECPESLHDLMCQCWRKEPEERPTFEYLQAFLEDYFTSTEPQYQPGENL

| Activity [1] | inhibition [2] | Structure (SMILES) |
| --- | --- | --- |
| Active |  | Cc1cc(NCCNc2ccc3c(c2)OCCO3)c2ccc3ccccc3c2n1 |
| Active | 22% | COc1ccc(NCCNc2cc(C)nc3c2ccc2ccccc23)cc1OC |
